Read-outs that look alike come from different tables or passages of the source.
Molecular target: cGAS (Homo sapiens, UniProt Q8N884)
Assay: cGAS enzymatic assay (FP/TR-FRET detection of cGAMP)
Type: biochemical
Design: The cGAS assay was used to screen 100,000 compounds with full-length human cGAS; 6xHis; made in house
Conditions: cGAS (30 nM)
Method: Some exemplary compounds of the disclosure were tested for inhibition of cGAS (30 nM). The results are provided in Table 1 where “A” indicates an IC50 of less than 100 nM, “B” indicates an IC50 of greater than 100 nM and less than 500 nM, “C” indicates an IC50 of greater than 500 nM and less than 1 μM, “D” indicates an IC50 of greater than 1 μM and less than 10 μM, and “E” indicates an IC50 of greater than 10 μM.
A homogenous cGAS enzymatic assay was developed with fluorescence polarization (FP) and time-resolved Forster resonance energy transfer (TR-FRET) readouts (FIG. 2A-2D). The cGAS assay was used to screen 100,000 compounds with full-length human cGAS (FIG. 2E), resulting in the identification of the novel chemotype of the disclosure, two of which are further developed in a structure-driven hit-to-lead study (Table 3, below). The assay performance was robust, as indicated by respective Z and Z′ values of 0.59 and 0.63 in the screen; compounds with polarization values greater than three SDs from the mean were considered hits; a scatterplot from 10 plates (3,200 compounds) is shown in FIG. 2D.
Biochemical and biophysical analysis: Potency and MOA studies, including Mn^2+ sensitivity, are performed using the cGAS enzymatic assay. Dose response experiments are used to determine IC50 values under basal conditions (5 mM MgCl2, 100 μM ATP/GTP), and with the addition of physiological levels of Mn (0.2 mM) using human and mouse cGAS. Ligand optimization is driven by potency with the human enzyme; potency with mouse cGAS informs selection of an appropriate disease model for efficacy studies. Competition with ATP and GTP is assessed by comparing basal IC50 values to those in the presence of saturating ATP or GTP, and subsequently confirmed by measuring velocity vs. substrate at varying ATP or GTP levels. Inhibitor residence times (1/koff) are used as a key parameter for prioritizing compounds and driving SAR, because a longer residence time often results from an allosteric mechanism, and can also correlate with improved cellular activity. The cGAS enzymatic assay is used with the jump dilution method to measure residence times (inhibitor dissociation rates), as described for kinases using the very similar ADP assay. Biophysical methods, including SPR and TSA, are used as orthologous methods for residence time measurements and kd estimates.

[1] = with Mn^2+, read-out: Inhibition cGAS + Mn^2+

cGAS, sequence (Q8N884 whole entry): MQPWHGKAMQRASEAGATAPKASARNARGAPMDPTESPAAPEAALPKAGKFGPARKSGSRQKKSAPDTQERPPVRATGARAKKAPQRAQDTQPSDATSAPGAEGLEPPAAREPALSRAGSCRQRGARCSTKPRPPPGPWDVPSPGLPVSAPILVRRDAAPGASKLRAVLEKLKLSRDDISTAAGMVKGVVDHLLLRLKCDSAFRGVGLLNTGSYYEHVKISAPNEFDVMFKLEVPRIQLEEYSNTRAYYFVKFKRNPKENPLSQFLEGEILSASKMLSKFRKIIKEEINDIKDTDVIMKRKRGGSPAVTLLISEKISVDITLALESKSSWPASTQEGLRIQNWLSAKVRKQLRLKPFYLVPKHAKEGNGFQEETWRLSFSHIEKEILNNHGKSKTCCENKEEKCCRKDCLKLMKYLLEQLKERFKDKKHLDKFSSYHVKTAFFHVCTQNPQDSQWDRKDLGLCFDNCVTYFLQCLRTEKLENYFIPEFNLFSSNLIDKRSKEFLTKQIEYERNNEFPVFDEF

Row | Structure (SMILES) | IC50 [1] [nM] | IC50 (read-out: Inhibition cGAS) [nM] | Inhibition cGAS
1 | Cc1nc(N2C[C@@H](Cc3nnn[nH]3)C[C@H]2CO)c2oc3ccccc3c2n1 [Compound 65, ((2S,4R)-4-((1H-tetrazol-5-yl)methyl)-1-(2-methylbenzofuro[3,2-d]pyrimidin-4-yl)pyrrolidin-2-yl)methanol] | 1000 to 10000 | 1000 to 10000 | 
2 | Cc1nc(N2C[C@@H](NC(=O)Cc3cn[nH]c3)C[C@H]2C(=O)O)c2oc3ccccc3c2n1 [Compound 32, (2S,4S)-4-(2-(1H-pyrazol-4-yl)acetamido)-1-(2-methylbenzofuro[3,2-d]pyrimidin-4-yl)pyrrolidine-2-carboxylic acid] |  | 500 to 1000 | 
3 | Cc1nc(N2C[C@@H](N(C)c3n[nH]cc3C)C[C@H]2C(=O)O)c2oc3ccccc3c2n1 [Compound 64, (2S,4S)-4-(methyl(4-methyl-1H-pyrazol-3-yl)amino)-1-(2-methylbenzofuro[3,2-d]pyrimidin-4-yl)pyrrolidine-2-carboxylic acid] | 1000 to 10000 | 1000 to 10000 | 
4 | C[C@H]1C[C@@H](C(=O)O)N(c2nc(-c3ccccc3)nc3c2oc2ccccc23)C1 [Compound 21, (2S,4S)-4-methyl-1-(2-phenylbenzofuro[3,2-d]pyrimidin-4-yl)pyrrolidine-2-carboxylic acid] | > 10000 | 1000 to 10000 | 
5 | O=C(O)[C@@H]1CCCN1c1nc(-c2ccncc2)nc2c1oc1ccccc12 [Compound 18, (2-(pyridin-4-yl)benzofuro[3,2-d]pyrimidin-4-yl)-L-proline] | > 10000 | > 10000 | 
6 | Cc1nc(N2C[C@@H](N(C)C(=O)Cc3ccncc3)C[C@H]2C(=O)O)c2oc3ccccc3c2n1 [Compound 60, (2S,4S)-4-(N-methyl-2-(pyridin-4-yl)acetamido)-1-(2-methylbenzofuro[3,2-d]pyrimidin-4-yl)pyrrolidine-2-carboxylic acid] |  | 500 to 1000 | 
7 | Cc1nc(N2C[C@@H](NC(=O)Cc3cccnc3N)C[C@H]2C(=O)O)c2oc3ccccc3c2n1 [Compound 49, (2S,4S)-4-(2-(2-aminopyridin-3-yl)acetamido)-1-(2-methylbenzofuro[3,2-d]pyrimidin-4-yl)pyrrolidine-2-carboxylic acid] |  | 500 to 1000 | 
8 | N#Cc1nc(N2CCC[C@H]2C(=O)O)c2oc3ccccc3c2n1 [Compound 22, (2-cyanobenzofuro[3,2-d]pyrimidin-4-yl)-L-proline] | 1000 to 10000 | 1000 to 10000 | 
9 | Cc1cc(CC(=O)N[C@H]2C[C@@H](C(=O)O)N(c3nc(C)nc4c3oc3ccccc34)C2)ccn1 [Compound 67, (2S,4S)-1-(2-methylbenzofuro[3,2-d]pyrimidin-4-yl)-4-(2-(2-methylpyridin-4-yl)acetamido)pyrrolidine-2-carboxylic acid] | > 10000 | 1000 to 10000 | 
10 | Cc1nc(N2C[C@@H](NC(=O)Cc3cc[nH]n3)C[C@H]2C(=O)O)c2oc3ccccc3c2n1 [Compound 31, (2S,4S)-4-(2-(1H-pyrazol-3-yl)acetamido)-1-(2-methylbenzofuro[3,2-d]pyrimidin-4-yl)pyrrolidine-2-carboxylic acid] |  |  | B, D
11 | CCc1nc(N(C)CC(=O)O)c2oc3ccccc3c2n1 [Compound 16, N-(2-ethylbenzofuro[3,2-d]pyrimidin-4-yl)-N-methylglycine] | 1000 to 10000 | 1000 to 10000 | 
12 | Cc1nc(N2C[C@@H](NC(=O)Cc3ncc[nH]3)C[C@H]2C(=O)O)c2oc3ccccc3c2n1 [Compound 36, (2S,4S)-4-(2-(1H-imidazol-2-yl)acetamido)-1-(2-methylbenzofuro[3,2-d]pyrimidin-4-yl)pyrrolidine-2-carboxylic acid] |  | 500 to 1000 | 
13 | Cc1nc(N[C@@H](CCC(=O)O)C(=O)O)c2oc3ccccc3c2n1 [Compound 24, (2-methylbenzofuro[3,2-d]pyrimidin-4-yl)glutamic acid] | > 10000 | 1000 to 10000 | 
14 | CNC(=O)C[C@H]1C[C@@H](C(=O)O)N(c2nc(C)nc3c2oc2ccccc23)C1 [Compound 35, (2S,4R)-4-(2-(methylamino)-2-oxoethyl)-1-(2-methylbenzofuro[3,2-d]pyrimidin-4-yl)pyrrolidine-2-carboxylic acid] |  | 500 to 1000 | 
15 | Cc1nc(N2C[C@@H](Cc3nn[nH]n3)C[C@H]2C(=O)O)c2oc3ccccc3c2n1 [Compound 25, (2S,4R)-4-((1H-tetrazol-5-yl)methyl)-1-(2-methylbenzofuro[3,2-d]pyrimidin-4-yl)pyrrolidine-2-carboxylic acid] |  | < 100 | 
16 | Cc1nc(N2C[C@@H](NC(=O)Cc3ccc(N)nc3)C[C@H]2C(=O)O)c2oc3ccccc3c2n1 [Compound 33, (2S,4S)-4-(2-(6-aminopyridin-3-yl)acetamido)-1-(2-methylbenzofuro[3,2-d]pyrimidin-4-yl)pyrrolidine-2-carboxylic acid] |  | 100 to 500 | 
17 | O=C(O)[C@@H]1CCCN1c1nc(C2CCC2)nc2c1oc1ccccc12 [Compound 11, (2-cyclobutylbenzofuro[3,2-d]pyrimidin-4-yl)-L-proline] | > 10000 | 1000 to 10000 | 
18 | CO[C@H]1C[C@@H](C(=O)O)N(c2nc(C)nc3c2oc2ccccc23)C1 [Compound 23, (2S,4S)-4-methoxy-1-(2-methylbenzofuro[3,2-d]pyrimidin-4-yl)pyrrolidine-2-carboxylic acid] | > 10000 | 1000 to 10000 | 
19 | Cc1cncc(CC(=O)N[C@H]2C[C@@H](C(=O)O)N(c3nc(C)nc4c3oc3ccccc34)C2)c1 [Compound 42, (2S,4S)-1-(2-methylbenzofuro[3,2-d]pyrimidin-4-yl)-4-(2-(5-methylpyridin-3-yl)acetamido)pyrrolidine-2-carboxylic acid] |  | 500 to 1000 | 
20 | Cc1nc(N2C[C@@H](NC(=O)C(C)(C)c3ccncc3)C[C@H]2C(=O)O)c2oc3ccccc3c2n1 [Compound 29, (2S,4S)-4-(2-methyl-2-(pyridin-4-yl)propanamido)-1-(2-methylbenzofuro[3,2-d]pyrimidin-4-yl)pyrrolidine-2-carboxylic acid] |  | 100 to 500 | 
21 | O=C(O)CNc1nc(-c2ccccc2)nc2c1oc1ccccc12 [Compound 5, (2-phenylbenzofuro[3,2-d]pyrimidin-4-yl)glycine] | > 10000 | 1000 to 10000 | 
22 | Cc1nc(NCC(=O)O)c2oc3ccccc3c2n1 [Compound 2, (2-methylbenzofuro[3,2-d]pyrimidin-4-yl)glycine] | > 10000 | 1000 to 10000 | 
23 | Cc1nc(N2C[C@@H](NC(=O)[C@H]3CN3)C[C@H]2C(=O)O)c2oc3ccccc3c2n1 [Compound 44, (2S,4S)-4-((R)-aziridine-2-carboxamido)-1-(2-methylbenzofuro[3,2-d]pyrimidin-4-yl)pyrrolidine-2-carboxylic acid] |  | 1000 to 10000 | 
24 | CCc1nc(N2CCC[C@H]2C(=O)O)c2oc3ccccc3c2n1 [Compound 7, (2-ethylbenzofuro[3,2-d]pyrimidin-4-yl)-L-proline] | 1000 to 10000 | 1000 to 10000 | 
25 | CC(C)(C(=O)N[C@H]1C[C@@H](C(=O)O)N(c2nc(C(F)(F)F)nc3c2oc2ccccc23)C1)c1cn[nH]c1 [Compound 58, (2S,4S)-4-(2-methyl-2-(1H-pyrazol-4-yl)propanamido)-1-(2-(trifluoromethyl)benzofuro[3,2-d]pyrimidin-4-yl)pyrrolidine-2-carboxylic acid] | 1000 to 10000 | 500 to 1000 | 
